Experimental findings from ChEMBL document CHEMBL3351245, “Chlorinated polyketide obtained from a Daldinia sp. treated with the epigenetic modifier suberoylanilide hydroxamic acid” (J Nat Prod, 2014) are described below.

SMILES strings stand for the structures. Activity calls are given as the source filed them. The rule behind the calls is not given here.

A short description of data set [1]: Antioxidant activity assessed as DPPH radical scavenging activity incubated for 30 mins. Format: physicochemical.
In a further data set the test system is Klebsiella pneumoniae. Kind of data set: Antimicrobial activity against Klebsiella pneumoniae. Format: functional, organism-based.
The next data set has as its system Staphylococcus aureus. In words: Antimicrobial activity against methicillin-resistant Staphylococcus aureus. Format: functional, organism-based.
The next data set concerns MIA PaCa-2. In words: Cytotoxicity against human MIAPaCa2 cells by MTT assay. Format: functional, cell-based.

The IC50 is the concentration at which inhibition is half-maximal. On to `O=C1c2c3c(cc(O)c2[C@H](O)[C@H](O)[C@@H]1Cl)-c1ccc(O)c2c(O)ccc-3c12`, for which the IC50 in data set [1] turned out to be 3.6 µM. The result in the data set on Klebsiella pneumoniae, with Staphylococcus aureus and in the data set with MIA PaCa-2 was inactive.
As to `O=C1c2c3c(cc(O)c2[C@H](O)[C@@H]2O[C@H]12)-c1ccc(O)c2c(O)ccc-3c12`, the IC50 in data set [1] is 3.1 µM. Moreover, the result in the data set on Klebsiella pneumoniae, in the data set with Staphylococcus aureus and in the data set on MIA PaCa-2 was inactive.
Take `O=C1O[C@H]([C@@H](O)CO)C(O)=C1O` [ASCORBIC ACID]: the half-inhibitory concentration (IC50) in data set [1] is 3.2 µM.
